# Reference: patent publication US7173019B2, “Linked cyclitols and their polysulfated derivatives” (The Australian National University, priority 2001, dated 2007)
# Read-outs that look alike come from different tables or passages of the source.
# Assays:
# [1] = target: T1, human leukocyte Cathepsin G (Homo sapiens, UniProt P08311); test: Cathepsin G inhibition, fluorogenic substrate, 96 well assay; format: biochemical; settings: human leukocyte cathepsin G 100 ng, 37° C., 60 min, pH 6.6
# T1 construct: human leukocyte Cathepsin G (100 ng protein); from tissue; host or cells: human leukocytes
# T1 sequence (P08311 21-244): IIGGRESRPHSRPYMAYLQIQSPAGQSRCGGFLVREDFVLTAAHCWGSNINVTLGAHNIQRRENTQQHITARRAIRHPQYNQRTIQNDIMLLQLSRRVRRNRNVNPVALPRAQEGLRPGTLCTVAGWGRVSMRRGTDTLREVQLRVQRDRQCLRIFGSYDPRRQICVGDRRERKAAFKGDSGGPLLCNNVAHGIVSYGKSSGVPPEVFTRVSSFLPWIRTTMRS
# Protocol: Cathepsin G activity was determined using a 96 well assay format in PVC microtitre U-bottom plates with activity determination by a fluorescence plate reader. Briefly, within a total incubation volume of 40 μl, human leukocyte Cathepsin G (100 ng protein) was added to a mixture of inhibitor and the fluorogenic substrate MeOSuc-ala-ala-pro-phe-AMAC in 50 mM-NaOAc buffer, pH 6.6 containing 50 mM NaCl and 0.1% (v/v) Brij 35. The mixture was incubated at 37° C. for 60 min, the reaction stopped by the addition of 40 μl of 250 mM acetic acid and the fluorescence determined with excitation at 360 nm and emitted light measured at 460 nm.
# In this table, the linked cyclitol compound identifications are the same as those given in Section A above where the structures of the compounds are also given. With regard to the purity rating, a greater number of asterisks signifies a greater degree of purity with five asterisks signifying an essentially pure compound. The cathepsin G inhibition data are the concentrations of compounds required to inhibit the enzyme by 50%.
# [2] = target: T2, human platelet heparanase (Homo sapiens, UniProt Q9Y251); test: Heparanase inhibition, 3H-radiolabelled HS cleavage assay; format: biochemical; settings: for Relative inhibition (%): based on a comparison with heparin with 100% inhibition at 30 μg/ml; for EC50: heparanase inhibition
# T2 construct: 10 ng of purified human platelet heparanase; from tissue; host or cells: human platelets
# T2 sequence (Q9Y251 158-543 limits assumed): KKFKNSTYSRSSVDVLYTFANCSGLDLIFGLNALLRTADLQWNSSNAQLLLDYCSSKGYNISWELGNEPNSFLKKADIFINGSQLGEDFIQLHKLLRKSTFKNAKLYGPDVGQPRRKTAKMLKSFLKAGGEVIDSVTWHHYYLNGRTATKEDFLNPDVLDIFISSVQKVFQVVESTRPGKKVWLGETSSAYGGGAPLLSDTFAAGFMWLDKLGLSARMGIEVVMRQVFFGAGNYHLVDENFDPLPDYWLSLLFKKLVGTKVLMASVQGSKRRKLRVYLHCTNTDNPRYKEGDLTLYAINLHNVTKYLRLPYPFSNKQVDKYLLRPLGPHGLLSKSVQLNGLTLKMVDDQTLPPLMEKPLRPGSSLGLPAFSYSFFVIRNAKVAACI
# T2 sequence (Q9Y251 36-109 limits assumed): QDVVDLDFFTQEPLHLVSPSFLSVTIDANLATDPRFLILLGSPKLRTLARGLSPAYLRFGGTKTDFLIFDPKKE
# Protocol: Briefly, to an incubation mixture of […] containing ^3H-radiolabelled porcine mucosal HS […], 50 mM-sodium acetate buffer, pH 5.0, […] bovine serum albumin and the inhibitor to be tested, was added 10 ng of purified human platelet heparanase and the mixture incubated for 30 min. The reaction was terminated by freezing the assay tubes. The substrate was separated from the cleavage products on minicolumns of sepharose-bound histidine-rich glycoprotein (Freeman, C., and Parish, C. R. [1997], supra).
# Inhibitory activity is based on a comparison with heparin with 100% inhibition at 30 μg/ml. The compounds were also tested at the same purity as in Example 15.
# bFGF = bFGF (Homo sapiens, UniProt P09038); test: Biacore biosensor: inhibition of bFGF binding to immobilised heparin and heparan sulfate; settings: for Inhibition of binding of bFGF (HS) / Inhibition of binding of bFGF (Hep): inhibitor 0.034 μM, bFGF 0.034 μM
# Sequence of bFGF (P09038 134-288 limits assumed, species assumed): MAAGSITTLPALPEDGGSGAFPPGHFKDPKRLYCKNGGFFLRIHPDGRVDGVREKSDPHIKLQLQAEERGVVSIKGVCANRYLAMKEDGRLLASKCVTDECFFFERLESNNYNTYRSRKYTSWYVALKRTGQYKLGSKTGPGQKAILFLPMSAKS
# Protocol: (§1) Assays were performed using a Biacore™ 2000 optical biosensor obtained from Biacore AB, Uppsala, Sweden. The biosensor was operated in accordance with the manufacturer's instructions. Briefly, neutravidin was covalently coupled to the surface of CM5 chips of the biosensor and then either biotinylated heparin (1 μg/ml) or biotinylated heparan sulfate ([…]) bound to the immobilised neutravidin. Mixtures of a test compound and a growth factor or other effector compound were preincubated for 2 to 5 minutes and the mixtures then added to individual biosensor cuvettes. Binding of growth factor or effector compound to the heparin or heparan sulfate was then monitored for approximately 5 minutes with the biosensor.
# (§2) The tabulated values are the IC50 in μM or % inhibition of binding of the growth factor to the immobilised heparan sulfate (HS) or heparin.
# aFGF = aFGF (Homo sapiens, UniProt P05230); test: Biacore biosensor: inhibition of aFGF binding to immobilised heparin and heparan sulfate; settings: inhibitor 0.034 μM, aFGF 0.025 μM; for Inhibition of binding of aFGF (HS): immobilised heparan sulfate; for Inhibition of binding of aFGF (Hep): immobilised heparin
# Sequence of aFGF (P05230 whole entry, species assumed): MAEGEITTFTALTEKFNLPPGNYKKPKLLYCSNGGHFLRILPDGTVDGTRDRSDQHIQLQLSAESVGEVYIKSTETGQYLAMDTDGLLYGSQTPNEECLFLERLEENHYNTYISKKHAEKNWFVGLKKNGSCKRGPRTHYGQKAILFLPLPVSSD
# Protocol: as §1, §2
# VEGF = target: T3, VEGF (Homo sapiens, UniProt P15692); test: Biacore biosensor: inhibition of VEGF binding to immobilised heparin and heparan sulfate; settings: inhibitor 0.034 μM, VEGF 0.025 μM; for Inhibition of binding of VEGF (HS): immobilised heparan sulfate; for Inhibition of binding of VEGF (Hep): immobilised heparin
# T3 sequence (P15692 27-191 isoform P15692-4): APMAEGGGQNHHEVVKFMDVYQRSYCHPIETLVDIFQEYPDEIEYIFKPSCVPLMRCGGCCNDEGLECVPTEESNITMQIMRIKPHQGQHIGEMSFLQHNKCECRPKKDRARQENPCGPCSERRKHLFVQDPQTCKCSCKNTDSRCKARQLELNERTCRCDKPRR
# Protocol: as §1, §2
# IL-8 = target: T4, IL-8 (Homo sapiens, UniProt P10145); test: Biacore biosensor: inhibition of IL-8 binding to immobilised heparin and heparan sulfate; settings: inhibitor 1.0 μM, IL-8 0.068 μM; for Inhibition of binding of IL-8 (HS): immobilised heparan sulfate; for Inhibition of binding of IL-8 (Hep): immobilised heparin
# T4 sequence (P10145 21-99): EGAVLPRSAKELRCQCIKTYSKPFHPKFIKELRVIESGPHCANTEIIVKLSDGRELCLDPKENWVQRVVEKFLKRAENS
# Protocol: as §1
# rat aorta fragments = test: In vitro angiogenesis inhibition assay; format: cell-based; settings: control 90
# Protocol: The ability of linked cyclitol compounds to inhibit angiogenesis in vitro was conducted using the assay essentially as described in the present applicant's International Patent Application No. PCT/AU95/00105 (Publication No. WO 95/23968), the entire content of which is incorporated herein by cross reference. The only changes to the procedure described in PCT/AU95/00105 were that the assays were conducted using rat aorta fragments rather than human placental vessel fragments.
# All potential inhibitors were tested at 100 μg/ml with PI-88 also being tested at 10 μg/ml. The tabulated data represent means of 4 culture wells for each experiment. Significant inhibition of angiogenesis is indicated with a single asterisk while double asterisks denote highly significant inhibition.
# The compounds were also tested at the same purity as in Example 15 save that the second entries for 4b and 4j relate to data obtained with higher purity compounds than the compounds used for the first data entries of each.
# [3] = inhibitor 100 μg/ml, means of 4 culture wells per experiment, * significant, ** highly significant inhibition
# [4] = immobilised heparan sulfate, read-out: IC50, inhibition of bFGF binding (HS)
# [5] = immobilised heparin, read-out: IC50, inhibition of bFGF binding (Hep)
Compound,Amount for 50% inhibition [1],Relative inhibition (%) [2],EC50 [2],Inhibition of binding of bFGF (HS) (bFGF; immobilised heparan sulfate),Inhibition of binding of bFGF (Hep) (bFGF; immobilised heparin),Inhibition of binding of aFGF (HS) (aFGF),Inhibition of binding of aFGF (Hep) (aFGF),Inhibition of binding of VEGF (HS) (VEGF),Inhibition of binding of VEGF (Hep) (VEGF),Inhibition of binding of IL-8 (HS) (IL-8),Inhibition of binding of IL-8 (Hep) (IL-8),% Growth (rat aorta fragments; [3]),"% Growth (rat aorta fragments; inhibitor 100 μg/ml, second entry, higher purity compound, * significant inhibition)",IC50 (bFGF; [4]),IC50 (bFGF; [5]),Inhibition (%) at 10 μg/ml ([2]; 10 μg/ml),"% Growth (rat aorta fragments; inhibitor 10 μg/ml, * significant inhibition)"
O=S(=O)(O)OC1C=CC(N(CCCCCCN(C2C=CC(OS(=O)(=O)O)C(OS(=O)(=O)O)C2OS(=O)(=O)O)C2C=CC(OS(=O)(=O)O)C(OS(=O)(=O)O)C2OS(=O)(=O)O)C2C=CC(OS(=O)(=O)O)C(OS(=O)(=O)O)C2OS(=O)(=O)O)C(OS(=O)(=O)O)C1OS(=O)(=O)O (centres unmarked) [Compound 4b],0.22 µg/mL,45%,40 µg/mL,48% (HS),52% (Hep),47% (HS),44% (Hep),32% (HS),45% (Hep),48% (HS),55% (Hep),70%,65* %,,,,
O=S(=O)(O)OC1C=CC(N(Cc2cccc(CN(C3C=CC(OS(=O)(=O)O)C(OS(=O)(=O)O)C3OS(=O)(=O)O)C3C=CC(OS(=O)(=O)O)C(OS(=O)(=O)O)C3OS(=O)(=O)O)c2)C2C=CC(OS(=O)(=O)O)C(OS(=O)(=O)O)C2OS(=O)(=O)O)C(OS(=O)(=O)O)C1OS(=O)(=O)O (centres unmarked) [Compound 4d],0.43 µg/mL,75%,15 µg/mL,68% (HS),52% (Hep),65% (HS),65% (Hep),40% (HS),44% (Hep),50% (HS),57% (Hep),67%,,23 nM,32 nM,,
O=S(=O)(O)OC1C(OS(=O)(=O)O)C(OS(=O)(=O)O)C(N(Cc2cccc(CN(C3C(OS(=O)(=O)O)C(OS(=O)(=O)O)C(OS(=O)(=O)O)C(OS(=O)(=O)O)C3OS(=O)(=O)O)C3C(OS(=O)(=O)O)C(OS(=O)(=O)O)C(OS(=O)(=O)O)C(OS(=O)(=O)O)C3OS(=O)(=O)O)c2)C2C(OS(=O)(=O)O)C(OS(=O)(=O)O)C(OS(=O)(=O)O)C(OS(=O)(=O)O)C2OS(=O)(=O)O)C(OS(=O)(=O)O)C1OS(=O)(=O)O (centres unmarked) [Compound 5d],0.53 µg/mL,100%,6 µg/mL,48% (HS),35% (Hep),67% (HS),72% (Hep),39% (HS),54% (Hep),62% (HS),71% (Hep),,,38 nM,160 nM,,
O=S(=O)(O)OC1C(OS(=O)(=O)O)C(OS(=O)(=O)O)C(N(Cc2ccc(CN(C3C(OS(=O)(=O)O)C(OS(=O)(=O)O)C(OS(=O)(=O)O)C(OS(=O)(=O)O)C3OS(=O)(=O)O)C3C(OS(=O)(=O)O)C(OS(=O)(=O)O)C(OS(=O)(=O)O)C(OS(=O)(=O)O)C3OS(=O)(=O)O)cc2)C2C(OS(=O)(=O)O)C(OS(=O)(=O)O)C(OS(=O)(=O)O)C(OS(=O)(=O)O)C2OS(=O)(=O)O)C(OS(=O)(=O)O)C1OS(=O)(=O)O (centres unmarked) [Compound 5e],,,,,,,,,,,,60* %,,,,,
"phosphomannopentaose sulfate [PI-88, reference compound]",,100%,2.9 µg/mL,56% (HS),50% (Hep),33% (HS),96% (Hep),65% (HS),29% (Hep),0%,10%,45** %,,25 nM,34 nM,90%,64* %
